These are literature values, as cited in patent US10517855B1, “Interleukins activity inhibiting composition” (priority 2019, dated 2019).

For series [1], the system named is MK-801-induced hyperlocomotion, working memory deficit and social withdrawal. As to conditions: preclinical studies.
For series [2] the following is noted: preclinical studies.
Series [3] has as its system amphetamine-induced lethality and stereotypy. The conditions noted are these: preclinical studies.
Series [4] relates to apomorphine-induced stereotypy. The conditions noted are these: preclinical studies.
The subject of series [5] is haloperidol-induced catalepsy. The conditions noted are these: preclinical studies.
A further series has as its system avian malaria. The conditions noted are these: in vivo.

Turning to `COC(=O)C1=CO[C@@H](C)[C@@H]2Cn3ccc4c5ccccc5nc-4c3C[C@H]12` [Alstonine], in series [1], the MK-801-induced hyperlocomotion entry was “attenuates”, the MK-801-induced social withdrawal result was “attenuates” and the “MK-801-induced working memory deficit” value was “attenuates”. For the same compound, the anxiolytic-like effects result in series [2] is “possesses anxiolytic-like effects”. Further, in series [3], the amphetamine-induced lethality result is given as “attenuates” and the amphetamine-induced stereotypy result was “attenuates”. Besides, the apomorphine-induced stereotypy result in series [4] was “attenuates”. For the same compound, in series [5], the haloperidol-induced catalepsy entry is given as “attenuates”.

In the case of `C/C=C1/CN2CC[C@@]34c5cc(O)ccc5N(C)[C@]35OC[C@@]4(C(=O)OC)[C@H]1C[C@H]25` [akuammine], the “activity against avian malaria” value in the series on avian malaria is “inactive”.
